Experimental data as given in article PMC6906472, “Purification and biological activity of natural variants synthesized by tridecaptin M gene cluster and in vitro drug-kinetics of this antibiotic class” (Scientific Reports, 2019).
In brackets after ≈: the same amount, converted by molar mass. Like-named read-outs stand apart in the source and are kept apart here. Square brackets hold non-standard residues; d marks the D form. Peptide text beside a SMILES is read from it. * marks the point of attachment. X2 = CC[C@H](C)CCCC[C@@H](O)CC(=O)*; d(aIle) = CC[C@H](C)[C@@H](N)C(=O)O; X1 = CC[C@H](C)CCCCC(=O)*; dDab = NCC[C@@H](N)C(=O)O; βNA = c1ccc2cc(N*)ccc2c1; Dab = NCC[C@H](N)C(=O)O

Columns and labels:
[1] = tested on: K. pneumoniae AH-3 (Col-R)
Experimental: (§1) MICs for all the compounds were determined by broth microdilution assay, according to CLSI guidelines[16] as described previously. Haemolysis experiments were performed with fresh rabbit RBCs[11]. All the compounds were tested at a concentration of 128 µg/ml. To obtain rabbit blood, the experiments and the protocols were in accordance with the ethical standards of the Institutional Animal Ethics Committee (IAEC) of the Institute of Microbial Technology approved (Approval no. IAEC/17/11) by Committee for the Purpose of Control And Supervision of Experiments on Animals (CPCSEA, Government of India).

[2] = tested on: Serratia marcescens MTCC 97
Experimental: as §1

[3] = tested on: Proteus mirabilis MTCC 1429
Experimental: as §1

A. baumannii ATCC 19606 [4] = tested on: A. baumannii ATCC 19606
Experimental: as §1

[5] = tested on: K. pneumoniae ATCC 700603
Experimental: as §1

K. pneumoniae P3R (M1-R) = conditions: broth microdilution, CLSI guidelines; M1-resistant mutant of ATCC 700603
Experimental: as §1

P. aeruginosa ATCC 27853 [6] = tested on: P. aeruginosa ATCC 27853
Experimental: as §1

E. coli CF-23 (mcr-1) = tested on: E. coli CF-23 (mcr-1)
Experimental: as §1

[7] = tested on: K. pneumoniae AH-16 (Col-R)
Experimental: as §1

[8] = tested on: K. pneumoniae ATCC 700603; assay: Synergy assay with efflux pump inhibitors; type: cell-based
Experimental: (§2) Acinetobacter baumannii ATCC 19606, Pseudomonas aeruginosa ATCC 27853, K. pneumoniae ATCC 700603, K. pneumoniae P3R, K. pneumoniae GMCH 13 and K. pneumoniae GMCH 15 were grown in CA-MHB and adjusted to ~4 × 10^5 CFU/ml. 100 µl of fresh CA-MHB containing carbonyl cyanide m-chlorophenyl hydrazine (CCCP) or phenylalanine-arginine beta-naphthylamide (PAβN) (at a final concentration of their 1/4th of MIC or 1/8th of MIC) was added to the wells of a 96-well flat bottom plate. Tridecaptin M was diluted in a 2-fold manner. 100 µl of culture was added and the plates were incubated for 16 to 18 h at 37 °C and observed for MICs. The fold modulation in MICs of tridecaptin M was calculated by comparing the results in the presence or absence of CCCP and PAβN.

[9] = tested on: efflux in A. baumannii ATCC 19606; conditions: CCCP 4 mg/L, Nile Red 5 μM, energization with 50 mM glucose, fluorescence 552/636 nm
Experimental: To assess the effect of CCCP on efflux in A. baumannii ATCC 19606, the Nile Red efflux assay was used[17]. The overnight grown culture was centrifuged at 3000 g for 10 min at room temperature. The pellet was resuspended in 20 mM potassium phosphate buffer (pH 7.0) containing 1 mM MgCl2 and washed twice with the same buffer. The cells were adjusted to an OD660 of 1.0 and the aliquots were transferred to a glass tubes containing CCCP at a final concentration of 4 mg/L. After 15 min, Nile Red was added to a final concentration of 5 μM, and the cell suspension was incubated in a shaker (140 rpm, 37 °C) for 3 h. The cells were kept at room temperature for 60 min and centrifuged for 5 min at 3000 g. The supernatant was discarded and the cell pellet was resuspended in assay buffer. Next, Nile Red efflux was immediately triggered by rapid energization with 50 mM glucose and the fluorescence was recorded at excitation and emission wavelength 552 nm and 636 nm, respectively, over a period of 5 min.

A. baumannii ATCC 19606 [10] = assay: microbe, parasite or virus in culture; conditions: for Intrinsic Activity; MIC: ~4 × 10^5 CFU/ml, CA-MHB, 16 to 18 h, 37 °C
Experimental: as §2

[11] = tested on: K. pneumoniae P3R (Tri-M Resistant); assay: microbe, parasite or virus in culture
Experimental: as §2

K. pneumoniae GMCH 15 = assay: microbe, parasite or virus in culture; conditions: for Intrinsic Activity; MIC: ~4 × 10^5 CFU/ml, CA-MHB, 16 to 18 h, 37 °C
Experimental: as §2

K. pneumoniae GMCH 13 = assay: microbe, parasite or virus in culture; conditions: for Intrinsic Activity; MIC: ~4 × 10^5 CFU/ml, CA-MHB, 16 to 18 h, 37 °C
Experimental: as §2

P. aeruginosa ATCC 27853 [12] = assay: microbe, parasite or virus in culture
Experimental: as §2

[13] = tested on: outer membrane of A. baumannii ATCC 19606, P. aeruginosa ATCC 27853, K. pneumoniae ATCC 700603, P3R; assay: Outer membrane permeabilization (NPN assay); type: cell-based; conditions: peptide 4 µg/ml and 8 µg/ml; triplicate, three biological repeats
Experimental: For outer membrane permeabilization study, NPN dye was used as described previously. A. baumannii ATCC 19606, P. aeruginosa ATCC 27853, K. pneumoniae ATCC 700603 were treated with two different concentrations of the peptide (4 µg/ml and 8 µg/ml). To check alteration in the cytoplasmic membrane potential, DiSC3(5) probe was used[11].

[14] = Order of elution in RP-HPLC (hydrophobicity); type: physicochemical; conditions: C18, acetonitrile/water with 0.075% TFA, in words
Experimental: The strain M-152 was inoculated in 700 ml MHB in 2 L Erlenmeyer flask, and the crude fermentation extract preparation, ion-exchange chromatography and the first step of RP-HPLC were performed as described for tridecaptin M[11]. The peaks obtained in HPLC were assayed against K. pneumoniae using agar well diffusion method. The active peaks (Fig. 1) were purified by the second round of HPLC under different conditions, optimized for each compound. The mobile phase system for all the peaks consisted of solvent A as 20% acetonitrile in Milli-Q and solvent B as 100% acetonitrile. Both solvents contained 0.075% TFA. C18 column (Waters, XBridge, 10 mm × 250 mm, 5 µm, 130 Å) was used to purify the compounds. Following gradient was used for the resolution of different components; for P1, 8% B to 26% B in 30 min, for P3, 8% B to 25% B in 23 min, for P4, 8% B to 23% B in 22 min, for P5, 3% B to 21.5% B in 24 min, for P6, 10% B to 25% B in 25 min, for P7, 8% B to 28% B in 25 min, for P8, 8% B to 26% B in 23 min, for P10, 10% B to 28% B in 30 min, for P11, 10% B to 28% B in 31 min. In two to three min, the gradient was reversed to initial column conditions and was equilibrated for five to six min, before the next injection. Multiple injections were given to generate a sufficient quantity of each compound for further studies.

[15] = ~4 × 10^5 CFU/ml, CA-MHB, 16 to 18 h, 37 °C
[16] = broth microdilution, CLSI guidelines

Row | Compound | Peptide MIC [1] | Peptide MIC [2] | Peptide MIC [3] | Peptide MIC (A. baumannii ATCC 19606 [4]; ATCC 19606) | Peptide MIC [5] | Peptide MIC (K. pneumoniae P3R (M1-R)) | Peptide MIC (P. aeruginosa ATCC 27853 [6]; ATCC 27853) | Peptide MIC (E. coli CF-23 (mcr-1)) | Peptide MIC [7] | also measured
1 | CC[C@H](C)CCCCC(=O)NCC(=O)N[C@H](CCN)C(=O)NCC(=O)N[C@H](CO)C(=O)N[C@H](Cc1c[nH]c2ccccc12)C(=O)N[C@@H](CO)C(=O)N[C@@H](CCN)C(=O)N[C@H](CCN)C(=O)N[C@H](C(=O)N[C@@H](CCC(=O)O)C(=O)N[C@H](C(=O)N[C@@H](C(=O)N[C@@H](CO)C(=O)O)C(C)C)C(C)C)[C@@H](C)CC [M2] (X1-G[dDab]G[dS][dW]S[Dab][dDab]IEV[dV]S-OH) | 8 µg/mL | >16 µg/mL | >16 µg/mL | >32 µg/mL | 8 µg/mL | >32 µg/mL | >32 µg/mL | 16 µg/mL | >16 µg/mL | 
2 | carbonyl cyanide m-chlorophenyl hydrazine [CCCP, reference compound] |  |  |  |  |  |  |  |  |  | Intrinsic Activity; MIC [8, 15]: 128 µg/mL; effect on efflux of Nile red dye [9]: inhibited the efflux of Nile red dye; Intrinsic Activity; MIC (A. baumannii ATCC 19606 [10]): 64 µg/mL; Intrinsic Activity; MIC [11, 15]: 128 µg/mL; Intrinsic Activity; MIC (K. pneumoniae GMCH 15): 64 µg/mL; Intrinsic Activity; MIC (K. pneumoniae GMCH 13): 32 µg/mL; Intrinsic Activity; MIC (P. aeruginosa ATCC 27853 [12]; [15]): 64 µg/mL
3 | CC[C@H](C)CCCCC(=O)NCC(=O)N[C@H](CCN)C(=O)NCC(=O)N[C@H](CO)C(=O)N[C@H](Cc1ccccc1)C(=O)N[C@@H](CO)C(=O)N[C@@H](CCN)C(=O)N[C@H](CCN)C(=O)N[C@H](C(=O)N[C@@H](CCC(=O)O)C(=O)N[C@H](C(=O)N[C@@H](C(=O)N[C@@H](CO)C(=O)O)[C@@H](C)CC)[C@@H](C)CC)[C@@H](C)CC [M8] (X1-G[dDab]G[dS][dF]S[Dab][dDab]IEI[d(aIle)]S-OH) | 8 µg/mL | 16 µg/mL | >16 µg/mL |  | 4 µg/mL | 128 µg/mL |  | 4 µg/mL | 4 µg/mL | Peptide MIC (A. baumannii ATCC 19606 [4]; [16]): 128 µg/mL; Peptide MIC (P. aeruginosa ATCC 27853 [6]; [16]): >128 µg/mL
4 | CC[C@H](C)CCCCC(=O)NCC(=O)N[C@H](CCN)C(=O)NCC(=O)N[C@H](CO)C(=O)N[C@H](Cc1ccccc1)C(=O)N[C@@H](CO)C(=O)N[C@@H](CCN)C(=O)N[C@H](CCN)C(=O)N[C@H](C(=O)N[C@@H](CCC(=O)O)C(=O)N[C@H](C(=O)N[C@@H](C(=O)N[C@@H](CO)C(=O)O)C(C)C)[C@@H](C)CC)[C@@H](C)CC [M5] (X1-G[dDab]G[dS][dF]S[Dab][dDab]IEI[dV]S-OH) | 16 µg/mL | 8 µg/mL | 16 µg/mL | >32 µg/mL | 16 µg/mL | 16 µg/mL | >32 µg/mL | 16 µg/mL | 16 µg/mL | 
5 | CC[C@H](C)CCCCC(=O)NCC(=O)N[C@H](CCN)C(=O)NCC(=O)N[C@H](CO)C(=O)N[C@H](Cc1c[nH]c2ccccc12)C(=O)N[C@@H](CO)C(=O)N[C@@H](CCN)C(=O)N[C@H](CCN)C(=O)N[C@H](C(=O)N[C@@H](CCC(=O)O)C(=O)N[C@H](C(=O)N[C@@H](C(=O)N[C@@H](CO)C(=O)O)C(C)C)[C@@H](C)CC)[C@@H](C)CC [M6] (X1-G[dDab]G[dS][dW]S[Dab][dDab]IEI[dV]S-OH) | 4 µg/mL | 16 µg/mL | >16 µg/mL | >32 µg/mL | 4 µg/mL | 16 µg/mL | >32 µg/mL | 4 µg/mL | 2 µg/mL | 
6 | CC[C@H](C)CCCC[C@@H](O)CC(=O)N[C@@H](C(=O)N[C@H](CCN)C(=O)NCC(=O)N[C@H](CO)C(=O)N[C@H](Cc1ccccc1)C(=O)N[C@@H](CO)C(=O)N[C@@H](CCN)C(=O)N[C@H](CCN)C(=O)N[C@@H](Cc1ccccc1)C(=O)N[C@@H](CCC(=O)O)C(=O)N[C@H](C(=O)N[C@@H](C(=O)N[C@@H](CO)C(=O)O)[C@@H](C)CC)[C@@H](C)CC)C(C)C [M11] (X2-[dV][dDab]G[dS][dF]S[Dab][dDab]FEI[d(aIle)]S-OH; N-terminus and C-terminus assumed) | 1 µg/mL | 4 µg/mL | 4 µg/mL |  | 2 µg/mL |  | 8 µg/mL | 1 µg/mL | 1 µg/mL | NPN uptake [13]: greater uptake of NPN, compared to M1; hydrophobicity by order of elution in HPLC [14]: greater hydrophobicity; fold modulation (reduction) of MIC in the presence of CCCP (A. baumannii ATCC 19606 [10]; MIC with versus without CCCP): four; Intrinsic Activity; MIC (A. baumannii ATCC 19606 [10]): 4 µg/mL; MIC of peptide in the presence of CCCP (K. pneumoniae GMCH 15; CCCP at 1/4th MIC): 2 µg/mL; MIC of peptide in the presence of CCCP (K. pneumoniae GMCH 15; CCCP at 1/8th MIC): 2 µg/mL; Intrinsic Activity; MIC (K. pneumoniae GMCH 15): 2 µg/mL; MIC of peptide in the presence of CCCP (K. pneumoniae GMCH 13; GMCH 13): 2 µg/mL; Intrinsic Activity; MIC (K. pneumoniae GMCH 13): 4 µg/mL
7 | NC(N)=NCCC[C@H](NC(=O)[C@@H](N)Cc1ccccc1)C(=O)Nc1ccc2ccccc2c1 [PAβN, phenylalanine-arginine beta-naphthylamide, reference compound] (H-Phe-Arg-βNA) |  |  |  |  |  |  |  |  |  | MIC ([8]; Klebsiella pneumoniae, ATCC700603, read-out: Intrinsic Activity, MIC): 256 µg/mL; MIC (A. baumannii ATCC 19606 [10]; Acinetobacter baumannii, ATCC19606, read-out: Intrinsic Activity, MIC): 64 µg/mL (≈ 143 µM); MIC ([11]; Klebsiella pneumoniae, read-out: Intrinsic Activity, MIC): 256 µg/mL (≈ 573 µM); MIC (K. pneumoniae GMCH 15; Klebsiella pneumoniae, GMCH15, read-out: Intrinsic Activity, MIC): 256 µg/mL (≈ 573 µM); MIC (K. pneumoniae GMCH 13; Klebsiella pneumoniae, GMCH13, read-out: Intrinsic Activity, MIC): 256 µg/mL (≈ 573 µM); MIC (P. aeruginosa ATCC 27853 [12]; Pseudomonas aeruginosa, ATCC27853, read-out: Intrinsic Activity, MIC): 64 µg/mL (≈ 143 µM)
8 | CC[C@H](C)CCCCC(=O)NCC(=O)N[C@H](CCN)C(=O)NCC(=O)N[C@H](CO)C(=O)N[C@H](Cc1c[nH]c2ccccc12)C(=O)N[C@@H](CO)C(=O)N[C@@H](CCN)C(=O)N[C@H](CCN)C(=O)N[C@H](C(=O)N[C@@H](CCC(=O)O)C(=O)N[C@H](C(=O)N[C@@H](C(=O)N[C@@H](CO)C(=O)O)[C@@H](C)CC)[C@@H](C)CC)C(C)C [M7] (X1-G[dDab]G[dS][dW]S[Dab][dDab]VEI[d(aIle)]S-OH) | 8 µg/mL | 8 µg/mL | >16 µg/mL | >32 µg/mL | 8 µg/mL | 16 µg/mL | >32 µg/mL | 16 µg/mL | 8 µg/mL | 
